Marks after values point to notes of the source that are not given here.
Experiments:
[1] = tested on: rodent model of non-alcoholic steatohepatitis (NASH); test: Picrosirius Red staining of liver in CDHFD rat NASH model; type: in vivo; conditions: CDHFD rats, 12 weeks; ASK1i 0.03% in chow, Formula (III) 10 mg/kg QD PO; FIG. 7
Description: The following study was conducted to evaluate the efficacy of the combination of an ASK1 inhibitor (ASK1i) and an ACC inhibitor (ACCi) in a rodent model of non-alcoholic steatohepatitis (NASH) relative to the efficacy of the individual agents alone in the model. In this model, NASH was induced in male Wistar rats by administration of a choline-deficient high fat diet (CDHFD).
Male Wistar (Crl:Wi(Han)) rats (aged 8-9 weeks at arrival) were acquired from Charles River, Raleigh, N.C. and used in the current studies. This study complie with all applicable sections of the Final Rules of the Animal Welfare Act regulations (Code of Federal Regulations, Title 9), the Public Health Service Policy on Humane Care and Use of Laboratory Animals from the Office of Laboratory Animal Welfare, and the Guide for the Care and Use of Laboratory Animals from the National Research Council. […]
Whole slide images of Picrosirius Red (PSR) stained slides were captured using a Leica AT2 scanner at 40× magnification. […] Quantitative image analysis was performed on the whole slide images using Visiopharm image analysis software (Visiopharm, Hoersholm, Denmark) to determine the extent and intensity of PSR. The total PSR-stained area was measured and expressed as a percentage of total liver area stained.

subjects with NASH = test: 12-week study of ASK1 inhibitor, ACC inhibitor and combination in subjects with NASH; type: in vivo, human
Description: Centrally-read PDFF and MRE, and serum fibrosis markers were measured at baseline (BL), W4 and W12. Deuterated water was administered to measure fractional synthesis of lipids (de novo lipogenesis [DNL]).

[2] = W12, orally QD, Formula (II) 18 mg, Formula (IV) 20 mg, combination 18/20 mg
[3] = serum, W12, orally QD, Formula (II) 18 mg, Formula (IV) 20 mg, combination 18/20 mg

COc1ccccc1[C@H](Cn1c(=O)n(C(C)(C)C(=O)O)c(=O)c2c(C)c(-c3ncco3)sc21)O[C@H]1CC[C@@H](O)CC1 [Formula (III)]
Reduction of hepatic PSR (% area) [1]: 50%

COc1ccccc1[C@H](Cn1c(=O)n(C(C)(C)C(=O)O)c(=O)c2c(C)c(-c3ncco3)sc21)OC1CCOCC1 [Formula (IV)]
PDFF compared with BL (in words) (subjects with NASH; 12 weeks orally QD, Formula (IV) p=0.006, combination p<0.001): significant improvements | ALT compared with BL (in words) (subjects with NASH; 12 weeks orally QD, combination p=0.019): non-significant reductions | PIII-NP compared with BL (in words) (subjects with NASH; 12 weeks orally QD, combination p=0.057): non-significant reductions | TIMP-1 compared with BL (in words) (subjects with NASH; 12 weeks orally QD, p=0.049): significant improvements | Grade 2 or higher AE, % of subjects (subjects with NASH; 12 weeks, orally QD, Formula (II) 18 mg, Formula (IV) 20 mg, combination 18/20 mg): 40% | ALT, median relative (%) change from BL (subjects with NASH; [2]): −33.5% | GGT, median relative (%) change from BL (subjects with NASH; [2]): −1.6% | MRE, median relative (%) change from BL (subjects with NASH; [2]): −8.9% | MRI-PDFF, median relative (%) change from BL (subjects with NASH; [2]): −42.7* % | ≥30% reduction in MRI-PDFF, % of subjects (subjects with NASH; [2]): 70% | PIII-NP, median relative (%) change from BL (subjects with NASH; [3]): −11.9% | TIMP-1, median relative (%) change from BL (subjects with NASH; [3]): −11.6* %

From patent US20180311244A1, “METHODS OF TREATING LIVER DISEASE” (Gilead Sciences, Inc., priority 2017, published 2018)
